Laboratory results reported in US20060069132A1, “Azolecarboxamide herbicides” (priority 2004, published 2006).

Columns and labels:
wild oat = test: Test B postemergence herbicide test; assay type: in vivo, Avena fatua
Summary of the method: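 Scale 0–100: zero equals no visible effect, 100 complete control, judged by eye relative to controls. Timing: 13 to 15 days in greenhouse post-treatment. Growth stage at spraying: two leaves (paddy) or one to four leaves, 2–18 cm (postemergence).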

pigweed = test: Test B pre-/postemergence herbicide test; assay type: in vivo, Amaranthus retroflexus; conditions: for Plant response rating (0 to 100 scale), Pigweed: 0 is no effect, 100 is complete control, preemergence
Summary of the method: (§1)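 Plants compared with untreated controls 13–15 days post-treatment and given a visual 0–100 injury score. Applications: preemergence to seeds; postemergence at 1- to 4-leaf (2–18 cm); paddy species flooded, 2-leaf stage. Vehicle non-phytotoxic, surfactant included.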

rice = test: Test B flooded paddy test; assay type: in vivo, Oryza sativa; conditions: 1000 g ai/ha, scale 0 to 100 (0 no effect, 100 complete control)
Summary of the method: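 Formulated test chemicals went onto postemergence plants measuring 2 to 18 cm, at one to four leaves. For the paddy assay, species had reached two leaves. Scoring took place 13–15 days later by eye, relative to untreated plants, using 0 for no effect up to 100 for full control.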

lambsquarters = test: Test B pre-/postemergence herbicide test; assay type: in vivo, Chenopodium album; conditions: for Plant response rating (0 to 100 scale), Lambsquarters: 0 is no effect, 100 is complete control, preemergence
Summary of the method: as §1

[1] = system: small flower umbrella sedge; test: Test B flooded paddy test; assay type: in vivo, Cyperus difformis; conditions: 1000 g ai/ha, scale 0 to 100 (0 no effect, 100 complete control)
Summary of the method: (§2)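 Postemergence plants were sprayed with formulated test chemicals at 2 to 18 cm height (1- to 4-leaf stage); paddy species were grown to the 2-leaf stage. After 13 to 15 days in a greenhouse, injury was rated visually against untreated controls on a 0–100 scale (0 = no effect, 100 = complete control).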

velvetleaf = test: Test B pre-/postemergence herbicide test; assay type: in vivo, Abutilon theophrasti; conditions: for Plant response rating (0 to 100 scale), Velvetleaf: 0 is no effect, 100 is complete control, preemergence
Summary of the method: as §1

giant foxtail = test: Test B pre-/postemergence herbicide test; assay type: in vivo, Setaria faberi; conditions: for Plant response rating (0 to 100 scale), Foxtail, Giant: 0 is no effect, 100 is complete control, preemergence
Summary of the method: as §1

blackgrass = test: Test B postemergence herbicide test; assay type: in vivo, Alopecurus myosuroides
Summary of the method: as §2

barnyardgrass [2] = test: Test B flooded paddy test; assay type: in vivo, Echinochloa crus-galli; conditions: 1000 g ai/ha, scale 0 to 100 (0 no effect, 100 complete control)
Summary of the method: as §2

ducksalad = test: Test B flooded paddy test; assay type: in vivo, Heteranthera limosa; conditions: 1000 g ai/ha, scale 0 to 100 (0 no effect, 100 complete control)
Summary of the method: as §2

large crabgrass = test: Test B pre-/postemergence herbicide test; assay type: in vivo, Digitaria sanguinalis; conditions: for Plant response rating (0 to 100 scale), Crabgrass, Large: 0 is no effect, 100 is complete control, preemergence
Summary of the method: as §1

corn = test: Test B pre-/postemergence herbicide test; assay type: in vivo, Zea mays; conditions: for Plant response rating (0 to 100 scale), Corn: 0 is no effect, 100 is complete control, preemergence
Summary of the method: as §1

barnyardgrass [3] = test: Test B pre-/postemergence herbicide test; assay type: in vivo, Echinochloa crus-galli; conditions: for Plant response rating (0 to 100 scale), Barnyardgrass: 0 is no effect, 100 is complete control, preemergence; for Barnyardgrass plant response rating: scale 0 (no effect) to 100 (complete control)
Summary of the method: (§3)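 Seeds were planted and treated preemergence with compounds formulated in a non-phytotoxic solvent mixture containing surfactant, while plants at the 1- to 4-leaf stage (2 to 18 cm) received postemergence sprays. Flooded paddy plants were grown to the 2-leaf stage. After 13 to 15 days in a greenhouse, injury was visually rated 0–100 against untreated controls.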

morningglory = test: Test B pre-/postemergence herbicide test; assay type: in vivo, Ipomoea coccinea; conditions: for Plant response rating (0 to 100 scale), Morningglory: 0 is no effect, 100 is complete control, preemergence
Summary of the method: as §3

cocklebur = test: Test B pre-/postemergence herbicide test; assay type: in vivo, Xanthium strumarium; conditions: for Plant response rating (0 to 100 scale), Cocklebur: 0 is no effect, 100 is complete control, preemergence
Summary of the method: as §3

[4] = 125 g ai/ha, visual rating, scale 0 (no effect) to 100 (complete control), postemergence
[5] = Postemergence, 500 g ai/ha, scale 0 (no effect) to 100 (complete control)
[6] = postemergence, 125 g ai/ha, scale 0 to 100

Compound	Oat, Wild plant response rating (wild oat; [5])	Plant response rating (0 to 100 scale), Pigweed (pigweed; 125 g ai/ha)	Pigweed plant response rating (pigweed; [5])	Rice plant response rating (rice)	Plant response rating (0 to 100 scale), Lambsquarters (lambsquarters; 125 g ai/ha)	Lambsquarters plant response rating (lambsquarters; [5])	Sedge, Umbrella plant response rating [1]	Plant response rating (0 to 100 scale), Velvetleaf (velvetleaf; 125 g ai/ha)	Velvetleaf plant response rating (velvetleaf; [5])	Plant response rating (0 to 100 scale), Foxtail, Giant (giant foxtail; 125 g ai/ha)	Foxtail, Giant plant response rating (giant foxtail; [5])	Blackgrass plant response rating (blackgrass; [5])	Barnyardgrass plant response rating (barnyardgrass [2])	Ducksalad plant response rating (ducksalad)	Plant response rating (0 to 100 scale), Crabgrass, Large (large crabgrass; 125 g ai/ha)	Crabgrass, Large plant response rating (large crabgrass; [5])	Plant response rating (0 to 100 scale), Corn (corn; 125 g ai/ha)	Corn plant response rating (corn; [5])	Plant response rating (0 to 100 scale), Barnyardgrass (barnyardgrass [3]; 125 g ai/ha)	Barnyardgrass plant response rating (barnyardgrass [3]; Postemergence, 500 g ai/ha)	other results
CCNC(=O)c1ccc(F)c(N(C(C)=O)C(=O)c2cc(C(C)(C)C)nn2CC)c1 [Compound 399]	40	100	80	80	100	100	80	80	80	100	50	70	90	90	100	30	90	40	90	40	Oat, Wild plant response rating (wild oat; [4]): 20; Pigweed plant response rating (pigweed; [4]): 60; Lambsquarters plant response rating (lambsquarters; [4]): 80; Velvetleaf plant response rating (velvetleaf; [4]): 20; Foxtail, Giant plant response rating (giant foxtail; [4]): 30; Blackgrass plant response rating (blackgrass; [4]): 30; Crabgrass, Large plant response rating (large crabgrass; [4]): 20; Corn plant response rating (corn; [4]): 10; Barnyardgrass plant response rating (barnyardgrass [3]; 125 g ai/ha, visual rating, postemergence): 10; Plant response rating (0 to 100 scale), Morningglory (morningglory; 125 g ai/ha): 10; Morningglory plant response rating (morningglory; [4]): 20; Morningglory plant response rating (morningglory; [5]): 40; Plant response rating (0 to 100 scale), Cocklebur (cocklebur; 125 g ai/ha): 50; Cocklebur plant response rating (cocklebur; [4]): 60; Cocklebur plant response rating (cocklebur; [5]): 80
C#CCOc1cccc(NC(=O)c2cc(C(C)(C)C)nn2CC)c1 [Compound 411]	50	30	90	50	50	90	80	0	10	10	30	60	50	80	80	30	0	10	60	30	Oat, Wild plant response rating (wild oat; [6]): 40; Pigweed plant response rating (pigweed; [6]): 80; Lambsquarters plant response rating (lambsquarters; [6]): 20; Velvetleaf plant response rating (velvetleaf; [6]): 0; Foxtail, Giant plant response rating (giant foxtail; [6]): 20; Blackgrass plant response rating (blackgrass; [6]): 40; Crabgrass, Large plant response rating (large crabgrass; [6]): 0; Corn plant response rating (corn; [6]): 10; Barnyardgrass plant response rating (barnyardgrass [3]; Postemergence, 125 g ai/ha): 0; Plant response rating (0 to 100 scale), Morningglory (morningglory; 125 g ai/ha): 0; Morningglory plant response rating (morningglory; [5]): 0; Morningglory plant response rating (morningglory; [6]): 0; Plant response rating (0 to 100 scale), Cocklebur (cocklebur; 125 g ai/ha): 0; Cocklebur plant response rating (cocklebur; [5]): 60; Cocklebur plant response rating (cocklebur; [6]): 0
C=CCOc1cccc(NC(=O)c2cc(C(C)(C)C)nn2CC)c1 [Compound 412]	40	50	100	40	0	100	90	0	10	30	30	40	40	80	50	30	0	0	40	0	Oat, Wild plant response rating (wild oat; [6]): 30; Pigweed plant response rating (pigweed; [6]): 90; Lambsquarters plant response rating (lambsquarters; [6]): 60; Velvetleaf plant response rating (velvetleaf; [6]): 0; Foxtail, Giant plant response rating (giant foxtail; [6]): 30; Blackgrass plant response rating (blackgrass; [6]): 40; Crabgrass, Large plant response rating (large crabgrass; [6]): 0; Corn plant response rating (corn; [6]): 0; Barnyardgrass plant response rating (barnyardgrass [3]; Postemergence, 125 g ai/ha): 0; Plant response rating (0 to 100 scale), Morningglory (morningglory; 125 g ai/ha): 0; Morningglory plant response rating (morningglory; [5]): 0; Morningglory plant response rating (morningglory; [6]): 0; Plant response rating (0 to 100 scale), Cocklebur (cocklebur; 125 g ai/ha): 0; Cocklebur plant response rating (cocklebur; [5]): 30; Cocklebur plant response rating (cocklebur; [6]): 0
CCc1nn(C(C)(C)C)nc1C(=O)Nc1cccc(C(=O)NC2CC2)c1 [Compound 417]	40	90	80	70	90	80	70	50	40	70	40	40	70	80	100	40	40	30	80	20	Oat, Wild plant response rating (wild oat; [6]): 10; Pigweed plant response rating (pigweed; [6]): 50; Lambsquarters plant response rating (lambsquarters; [6]): 70; Velvetleaf plant response rating (velvetleaf; [6]): 20; Foxtail, Giant plant response rating (giant foxtail; [6]): 20; Blackgrass plant response rating (blackgrass; [6]): 10; Crabgrass, Large plant response rating (large crabgrass; [6]): 20; Corn plant response rating (corn; [6]): 10; Barnyardgrass plant response rating (barnyardgrass [3]; Postemergence, 125 g ai/ha): 10; Plant response rating (0 to 100 scale), Morningglory (morningglory; 125 g ai/ha): 0; Morningglory plant response rating (morningglory; [5]): 60; Morningglory plant response rating (morningglory; [6]): 50; Plant response rating (0 to 100 scale), Cocklebur (cocklebur; 125 g ai/ha): 0; Cocklebur plant response rating (cocklebur; [5]): 40; Cocklebur plant response rating (cocklebur; [6]): 20
CCN(CC)C(=O)c1cccc(NC(=O)c2nn(C(C)(C)C)nc2C)c1 [Compound 418]	10	100	80	60	100	90	80	50	40	80	40	30	80	70	100	30	10	20	70	20	Oat, Wild plant response rating (wild oat; [6]): 0; Pigweed plant response rating (pigweed; [6]): 70; Lambsquarters plant response rating (lambsquarters; [6]): 60; Velvetleaf plant response rating (velvetleaf; [6]): 20; Foxtail, Giant plant response rating (giant foxtail; [6]): 20; Blackgrass plant response rating (blackgrass; [6]): 10; Crabgrass, Large plant response rating (large crabgrass; [6]): 20; Corn plant response rating (corn; [6]): 20; Barnyardgrass plant response rating (barnyardgrass [3]; Postemergence, 125 g ai/ha): 20; Plant response rating (0 to 100 scale), Morningglory (morningglory; 125 g ai/ha): 40; Morningglory plant response rating (morningglory; [5]): 80; Morningglory plant response rating (morningglory; [6]): 80; Plant response rating (0 to 100 scale), Cocklebur (cocklebur; 125 g ai/ha): 0; Cocklebur plant response rating (cocklebur; [5]): 30; Cocklebur plant response rating (cocklebur; [6]): 20
